{
  "source": "paper PMC6554663",
  "about": "“Pharmaceutical Effects of Inhibiting the Soluble Epoxide Hydrolase in Canine Osteoarthritis” (Frontiers in Pharmacology, 2019)",
  "test_system": "Canine chondrocytes (CnC)",
  "assay": "IL1β induced chondrocyte cytotoxicity (Alamar Blue)",
  "format": "cell-based",
  "conditions": "meloxicam 1 μg/mL, EET 0.4 μg/mL total, 48 h",
  "method": "Canine chondrocytes (CnC) were purchased from Cell Applications, Inc. […] Cells were kept at room temperature and monitored for detachment (∼2 min). Detached cells were added to 3× volume of full growth media and centrifuged to remove trypsin. Cells were reseeded at a concentration of 15,000 cells/cm^2 to reach 80% confluence in 3 days. Cells were expanded and frozen at the third passage in CGS containing 10% DMSO. For individual experiments, fresh cells were thawed and used at passage 5. Canine chondrocytes cells were plated in 96-well plates at a density of 15,000 cells/cm^2. Optimal cell number was predetermined by a cell seeding experiment outlined in [O'Brien et al. […] After 2 h, the IL1β treated media was aspirated and replaced with complete growth media supplemented with either vehicle (0.1% ethanol), regioisomers of EETs, or meloxicam for 48-h before assessing inflammatory cytokines and cytotoxicity. Cells were also pretreated with meloxicam or EET mixture 30 min prior to adding IL1β treatment for 2-h. After IL1β was removed, treatments were added to complete growth media for 48-h as described above. Treatment conditions are described in the Section “Results.” After the CnC cells were treated for 48-h under conditions described above, the media was removed and replaced with complete media containing 10% Alamar Blue (Life Technologies, catalog number DAL1025). The Alamar Blue assay relies on the metabolism of non-fluorescent resazurin to the highly fluorescent resorufin by healthy cells. Fluorescent intensity can be used to track cytotoxicity after xenobiotic treatments ([Larson et al., 1997]). After the addition of Alamar Blue, plates were protected from light and incubated at […] in a 5% CO2 atmosphere for 8 h. The conversion of resazurin was monitored by reading fluorescence at 570 excitations and 585 emission on a plate reader (Tecan […]) and cytotoxicity was calculated as the ratio of fluorescence from treated cells to non-treated controls.",
  "data": [
    {"compound": "Cc1cnc(NC(=O)C2=C(O)c3ccccc3S(=O)(=O)N2C)s1", "note": "[Meloxicam]", "values": [
      {"measurement": "IL1β induced cytotoxicity, treatment added after IL1β", "setting": "10 ng/mL IL1β 2 h", "result": "did not result in significant reduction in cytotoxicity"},
      {"measurement": "IL1β induced cytotoxicity, treatment added before IL1β", "setting": "10 ng/mL IL1β 2 h", "result": "significantly reduced"},
      {"measurement": "effect on healthy CnC cells (cytotoxicity, Alamar Blue)", "setting": "absence of IL1β", "result": "no effect"}
    ]}
  ]
}
